According to patent publication US9447051B2, “Diaminopyrimidines and uses thereof” (AbbVie inc., priority 2012, dated 2016):

Experiments:
HEp-2 cells = test: Cytotoxicity (MTT) assay; assay type: cell-based; conditions: Table 2; uninfected HEp-2 cells, 4 days incubation, 50% toxicity dose
Description: A cytopathetic effect (CPE) protection assay was performed to determine the ability of a compound to protect the cells from viral infection and thus the CPE induced by viral infection. 96-well plates were first seeded with 3×10^3 HEp-2 cells per well in Dulbecco's modified Eagle's medium (DMEM) containing 10% fetal bovine serum (FBS). One day after the cells were seeded, they were preincubated with serial dilutions of compounds prepared in 100 μL assay medium (DMEM mixed with F12 medium at a 1:1 ratio, supplemented with 2% FBS and 1 mM sodium pyruvate) for 1 hour at 37° C. 100 μL of assay medium containing 0.2 multiplicity of infection (MOI) of RSV was then added to each well of cells. In addition to wells containing infected cells incubated with compounds, each plate also contained replicates of two kinds of controls: (1) Virus control contained cells infected with 0.2 MOI of RSV in assay medium, (2) Uninfected cell control contained cells incubated with assay medium only. After 4 days of incubation at 37° C., the viability of cells was assessed using MTT (Thiazolyl blue tetrazolium bromide, Sigma). A stock solution of MTT, at a concentration of 4 mg/mL in phosphate-buffered saline, was added to all wells at 25 μL per well. Plates were further incubated for 4 hours, and each well was then treated with 50 μL of a solution containing 20% sodium dodecyl sulfate (SDS) and 0.02 N HCl. After an overnight incubation, the plates were measured on a BioTek® microtiter plate reader at wavelengths of 570 nm and 650 nm. The MTT detection is based on the fact that viable (uninfected) cells can reduce the tetrazolium salts into colored formazan products, which can then be quantitated by spectrometry. Based on the spectrometric absorbance of each sample, the percent of protection from CPE, which is an indicator of protection from viral infection, can be calculated for each compound and the 50% effective concentrations (EC50) can be calculated using a nonlinear regression curve fitting equation provided by the GraphPad Prism® 4 software.
Cytotoxicity of the compounds was determined in experiments done in parallel with the antiviral assays. To do this, 100 μL of assay medium was added to the wells of HEp-2 cells pretreated with 100 μL serially diluted compounds as described above. After 4 days of incubation, the viability of the cells was determined by the MTT assay in the same way as detailed in the “Antiviral Assay” method. Results were expressed as 50% toxicity dose (TD50) values.
Compounds were tested to determine both their antiviral and toxicity to determine their therapeutic window. Determination of the EC50 and TD50 of these active compounds were repeated one additional time to confirm the window.

[1] = system: RSV (Group A, Long Strain); test: Antiviral (RSV) assay: cytopathetic effect (CPE) protection assay in HEp-2 cells, MTT readout; assay type: cell-based, human respiratory syncytial virus (RSV); conditions: human respiratory syncytial virus, HEp-2, 96 h
Description: HEp-2 cells and RSV (Group A, Long Strain) were obtained from the American Type Culture Collection (Manassas, Va.). A cytopathetic effect (CPE) protection assay was performed to determine the ability of a compound to protect the cells from viral infection and thus the CPE induced by viral infection. 96-well plates were first seeded with 3×10^3 HEp-2 cells per well in Dulbecco's modified Eagle's medium (DMEM) containing 10% fetal bovine serum (FBS). One day after the cells were seeded, they were preincubated with serial dilutions of compounds prepared in 100 μL assay medium (DMEM mixed with F12 medium at a 1:1 ratio, supplemented with 2% FBS and 1 mM sodium pyruvate) for 1 hour at 37° C. 100 μL of assay medium containing 0.2 multiplicity of infection (MOI) of RSV was then added to each well of cells. In addition to wells containing infected cells incubated with compounds, each plate also contained replicates of two kinds of controls: (1) Virus control contained cells infected with 0.2 MOI of RSV in assay medium, (2) Uninfected cell control contained cells incubated with assay medium only. After 4 days of incubation at 37° C., the viability of cells was assessed using MTT (Thiazolyl blue tetrazolium bromide, Sigma). A stock solution of MTT, at a concentration of 4 mg/mL in phosphate-buffered saline, was added to all wells at 25 μL per well. Plates were further incubated for 4 hours, and each well was then treated with 50 μL of a solution containing 20% sodium dodecyl sulfate (SDS) and 0.02 N HCl. After an overnight incubation, the plates were measured on a BioTek® microtiter plate reader at wavelengths of 570 nm and 650 nm. The MTT detection is based on the fact that viable (uninfected) cells can reduce the tetrazolium salts into colored formazan products, which can then be quantitated by spectrometry. […] Compounds were tested to determine both their antiviral and toxicity to determine their therapeutic window. Determination of the EC50 and TD50 of these active compounds were repeated one additional time to confirm the window.

[2] = Table 1, 0.2 MOI RSV, 4 days incubation, protection from CPE
[3] = Table 2, 0.2 MOI RSV, 4 days, determination repeated to confirm window

Row | Structure (SMILES) | MTT TD50 (HEp-2 cells) [µM] | EC50 [1, 2] [nM] | EC50 [1, 3] [nM]
1 | Cc1nc(NCc2ccccn2)nc(NC2CCCCC2)c1C [Example 1, N^4-cyclohexyl-5,6-dimethyl-N^2-(pyridin-2-ylmethyl)pyrimidine-2,4-diamine] | 23.00 | 250 | 150
2 | Cc1ccccc1CNc1nc(NCc2ccccn2)nc2c1CCC2 [Example 2, N^4-(2-methylbenzyl)-N^2-(pyridin-2-ylmethyl)-6,7-dihydro-5H-cyclopenta[d]pyrimidine-2,4-diamine] | 7.17 | 2050 | 2050
3 | Cc1cc(NC2CCCCCC2)nc(NCc2ccccn2)n1 [Example 3, N^4-cycloheptyl-6-methyl-N^2-(pyridin-2-ylmethyl)pyrimidine-2,4-diamine] | 8.04 | 2790 | 2790
4 | Cc1cc(NC2CCCCC2)nc(NCc2ccccn2)n1 [Example 4, N^4-cyclohexyl-6-methyl-N^2-(pyridin-2-ylmethyl)pyrimidine-2,4-diamine] | 39.00 | 23500 | 23500
5 | Cc1nc(NCc2ccccn2)nc(NC2CCN(C)CC2)c1C [Example 81, 5,6-dimethyl-N^4-(1-methylpiperidin-4-yl)-N^2-(pyridin-2-ylmethyl)pyrimidine-2,4-diamine] |  | 1300 | 
6 | Cc1nc(NCc2ccccn2)nc(NC2CCN(C(=O)OC(C)(C)C)CC2)c1C [Example 82, tert-butyl 4-({5,6-dimethyl-2-[(pyridin-2-ylmethyl)amino]pyrimidin-4-yl}amino)piperidine-1-carboxylate] |  | 540 | 
7 | Cc1nc(NCc2ccccn2)nc(NC2CCNCC2)c1C [Example 83, 5,6-dimethyl-N^4-(piperidin-4-yl)-N^2-(pyridin-2-ylmethyl)pyrimidine-2,4-diamine] |  | 33000 | 
8 | Cc1nc(NCc2ccccn2)nc(Nc2c(C(C)C)cccc2C(C)C)c1C [Example 84, N^4-(2,6-diisopropylphenyl)-5,6-dimethyl-N^2-(pyridin-2-ylmethyl)pyrimidine-2,4-diamine] |  | 16 | 
9 | Cc1nc(NCc2ccccn2)nc(NC2CCCC(O)C2)c1C (centres unmarked) [Example 85, 3-({5,6-dimethyl-2-[(pyridin-2-ylmethyl)amino]pyrimidin-4-yl}amino)cyclohexanol] |  | 1380 | 
10 | Cc1ccc(CNc2nc(C)c(C)c(NC3CCCCC3)n2)nc1 [Example 86, N^4-cyclohexyl-5,6-dimethyl-N^2-[(5-methylpyridin-2-yl)methyl]pyrimidine-2,4-diamine] |  | 1500 | 
11 | Cc1nc(NC(C)c2ccccn2)nc(NC2CCCCC2)c1C (centres unmarked) [Example 87, N^4-cyclohexyl-5,6-dimethyl-N^2-[1-(pyridin-2-yl)ethyl]pyrimidine-2,4-diamine] |  | > 32000 | 
12 | Cc1nc(NCc2ccccn2)nc(Nc2ccc(F)cc2F)c1C [Example 88, N^4-(2,4-difluorophenyl)-5,6-dimethyl-N^2-(pyridin-2-ylmethyl)pyrimidine-2,4-diamine] |  | 38 | 
13 | CCc1c(C)nc(NCc2ccccn2)nc1Nc1ccc(F)cc1 [Example 89, 5-ethyl-N^4-(4-fluorophenyl)-6-methyl-N^2-(pyridin-2-ylmethyl)pyrimidine-2,4-diamine] |  | 480 | 
14 | CCc1ccnc(CNc2nc(C)c(C)c(NC3CCC(F)(F)CC3)n2)c1 [Example 90, N^4-(4,4-difluorocyclohexyl)-N^2-[(4-ethylpyridin-2-yl)methyl]-5,6-dimethylpyrimidine-2,4-diamine] |  | 510 | 
15 | Cc1nc(NCc2ccccn2)nc(NCC2CCCO2)c1C (centres unmarked) [Example 91, 5,6-dimethyl-N^2-(pyridin-2-ylmethyl)-N^4-(tetrahydrofuran-2-ylmethyl)pyrimidine-2,4-diamine] |  | 2200 | 
16 | Cc1nc(NCc2ccccn2)nc(NCC2CCCCC2)c1C [Example 92, N^4-(cyclohexylmethyl)-5,6-dimethyl-N^2-(pyridin-2-ylmethyl)pyrimidine-2,4-diamine] |  | 1100 | 
17 | Cc1nc(NCc2ccccn2)nc(Nc2cccnc2)c1C [Example 93, 5,6-dimethyl-N^4-(pyridin-3-yl)-N^2-(pyridin-2-ylmethyl)pyrimidine-2,4-diamine] |  | 930 | 
18 | Cc1nc(NCc2ccccn2)nc(Nc2nncs2)c1C [Example 94, 5,6-dimethyl-N^2-(pyridin-2-ylmethyl)-N^4-(1,3,4-thiadiazol-2-yl)pyrimidine-2,4-diamine] |  | 2400 | 
19 | Cc1nc(NCc2ccccn2)nc(Nc2ccon2)c1C [Example 95, 5,6-dimethyl-N^4-(1,2-oxazol-3-yl)-N^2-(pyridin-2-ylmethyl)pyrimidine-2,4-diamine] |  | 5300 | 
20 | Cc1cc(Nc2nc(NCc3ccccn3)nc(C)c2C)no1 [Example 96, 5,6-dimethyl-N^4-(5-methyl-1,2-oxazol-3-yl)-N^2-(pyridin-2-ylmethyl)pyrimidine-2,4-diamine] |  | 15000 | 
21 | Cc1nc(NCc2ccccn2)nc(NCc2ccc(F)cc2)c1C [Example 97, N^4-(4-fluorobenzyl)-5,6-dimethyl-N^2-(pyridin-2-ylmethyl)pyrimidine-2,4-diamine] |  | 140 | 
